pIC50: −log10 of the molar value.
Legend:
[1] = target: GluN1-CC/2A receptors (GluN1-N499C+Q686C) (Rattus norvegicus, UniProt P35439+Q00959, N499C/Q686C); assay type: cell-based; details: 100 μM glutamate alone; glycine 300 μM, 7CKA 10 μM, TCN-201 5 μM, MPX-004 10 μM, MPX-007 30 μM
GluN1/2A receptors = GluN1/2A receptors (Rattus norvegicus, UniProt P35439+Q00959); assay type: cell-based; details: for increase of IC50 in 30 μM glycine compared to 3 μM glycine: 100 μM glutamate; for extent of inhibition of GluN1/2A / pIC50: activated by 100 μM glutamate plus 3 μM glycine; for pIC50: read-out: IC50 for inhibition of GluN1/2A
Sequence of GluN1/2A receptors (Q00959 20-1464 limits assumed, other chains not shown): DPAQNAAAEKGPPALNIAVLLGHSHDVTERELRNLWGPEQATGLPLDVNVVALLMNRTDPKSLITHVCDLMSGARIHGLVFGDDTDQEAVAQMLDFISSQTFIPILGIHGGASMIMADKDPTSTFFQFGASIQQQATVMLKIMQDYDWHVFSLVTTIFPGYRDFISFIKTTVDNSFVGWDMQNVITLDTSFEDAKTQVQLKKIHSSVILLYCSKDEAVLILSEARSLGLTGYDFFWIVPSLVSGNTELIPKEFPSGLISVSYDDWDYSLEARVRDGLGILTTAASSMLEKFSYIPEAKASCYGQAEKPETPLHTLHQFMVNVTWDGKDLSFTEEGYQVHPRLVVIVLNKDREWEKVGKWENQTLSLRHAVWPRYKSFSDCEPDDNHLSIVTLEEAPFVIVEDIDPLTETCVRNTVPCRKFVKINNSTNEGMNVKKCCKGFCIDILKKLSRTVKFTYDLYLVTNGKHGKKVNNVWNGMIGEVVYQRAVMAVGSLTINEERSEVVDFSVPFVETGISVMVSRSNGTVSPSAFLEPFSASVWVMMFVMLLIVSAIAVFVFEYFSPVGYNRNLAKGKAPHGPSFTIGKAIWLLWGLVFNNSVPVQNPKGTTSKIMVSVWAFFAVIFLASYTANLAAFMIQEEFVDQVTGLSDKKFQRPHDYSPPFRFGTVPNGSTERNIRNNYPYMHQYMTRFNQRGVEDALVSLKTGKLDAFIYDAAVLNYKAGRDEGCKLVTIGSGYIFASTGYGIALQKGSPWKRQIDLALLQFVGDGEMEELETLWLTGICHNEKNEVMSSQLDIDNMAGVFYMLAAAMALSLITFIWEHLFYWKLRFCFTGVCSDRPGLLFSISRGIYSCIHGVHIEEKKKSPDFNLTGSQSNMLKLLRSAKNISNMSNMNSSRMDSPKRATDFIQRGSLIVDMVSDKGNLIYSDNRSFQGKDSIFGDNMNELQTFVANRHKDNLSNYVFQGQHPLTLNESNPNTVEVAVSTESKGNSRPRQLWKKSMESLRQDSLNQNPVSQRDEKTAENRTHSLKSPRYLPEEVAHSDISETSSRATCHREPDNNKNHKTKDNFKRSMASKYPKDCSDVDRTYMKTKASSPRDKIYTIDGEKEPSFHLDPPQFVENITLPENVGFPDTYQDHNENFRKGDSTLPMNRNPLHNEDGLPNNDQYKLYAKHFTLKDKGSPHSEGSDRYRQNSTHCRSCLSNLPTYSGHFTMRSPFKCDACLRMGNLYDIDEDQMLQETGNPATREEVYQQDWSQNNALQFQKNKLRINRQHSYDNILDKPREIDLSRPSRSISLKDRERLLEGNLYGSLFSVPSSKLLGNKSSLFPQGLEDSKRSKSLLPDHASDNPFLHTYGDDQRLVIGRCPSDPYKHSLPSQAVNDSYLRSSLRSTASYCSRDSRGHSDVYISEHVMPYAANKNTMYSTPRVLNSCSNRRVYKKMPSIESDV

[2] = Solubility-limited maximal concentration in recording solution; assay type: physicochemical; details: extracellular recording solution pH 7.4, DMSO < 0.3%
GluN1/2B-D receptors = assay type: cell-based
GluN1/2B receptors = GluN1/2B receptors (Rattus norvegicus, UniProt P35439+Q00960); assay type: cell-based
[3] = target: GluN1/2A receptors with GluN1-F754L (Rattus norvegicus, UniProt P35439+Q00959, F754L); assay: Glycine concentration-response and Schild analysis, GluN1-F754L; assay type: cell-based
[4] = target: GluN1/2A receptors with GluN1-Y535F (Rattus norvegicus, UniProt P35439+Q00959, Y535F); assay: Schild analysis of TCN-201, GluN1-Y535F; assay type: cell-based
Sequence of GluN1/2A receptors with GluN1-Y535F (Q00959 20-1464 limits assumed, other chains not shown): as above

[5] = target: GluN1/2A receptors with GluN1-R755A (Rattus norvegicus, UniProt P35439+Q00959, R755A); assay: TCN-201 inhibition, GluN1-R755A; assay type: cell-based
[6] = target: wild type GluN1/2A receptors (Rattus norvegicus, UniProt P35439+Q00959); assay type: cell-based
[7] = target: GluN1/2A receptors with GluN2A-V783F (Rattus norvegicus, UniProt P35439+Q00959, V783F); assay: Glycine concentration-response and Schild analysis, GluN2A-V783F; assay type: cell-based; details: read-out: binding affinity KB
[8] = target: GluN1/2A receptors with GluN1-F754V (Rattus norvegicus, UniProt P35439+Q00959, F754V); assay: Glycine concentration-response and Schild analysis, GluN1-F754V; assay type: cell-based
Sequence of GluN1/2A receptors with GluN1-F754V (Q00959 20-1464 limits assumed, other chains not shown): as above

[9] = target: GluN1/2A receptors with GluN1-Y535L (Rattus norvegicus, UniProt P35439+Q00959, Y535L); assay: Schild analysis of TCN-201, GluN1-Y535L; assay type: cell-based
[10] = target: GluN1/2A receptors with GluN2A-V783A (Rattus norvegicus, UniProt P35439+Q00959, V783A); assay: Glycine concentration-response and Schild analysis, GluN2A-V783A; assay type: cell-based

Compound | effect on glutamate-activated responses from crosslinked GluN1-CC/2A [1] | increase of IC50 in 30 μM glycine compared to 3 μM glycine (GluN1/2A receptors; GluN1/2A) | maximal inhibition (GluN1/2A receptors; GluN1/2A, 300 μM glycine) | extent of inhibition of GluN1/2A (GluN1/2A receptors) | pIC50 (GluN1/2A receptors) | maximal concentration used, limited by compound solubility [2] | selectivity for GluN1/2A over GluN1/2B-D (GluN1/2B-D receptors) | further results
O=C(O)c1cc(O)c2ccc(Cl)cc2n1 [7CKA] | not sensitive |  |  |  |  |  |  | 
Cc1ncc(CNC(=O)c2cnc(CNS(=O)(=O)c3ccc(F)c(Cl)c3)cn2)s1 [MPX-004] | significant potentiation | 3.8 fold | 71% ± 4% | nearly complete inhibition | ~6.70 | 10 µM | strict selectivity | 
Cc1ncc(CNC(=O)c2cnc(CNS(=O)(=O)c3ccc(F)c(F)c3)c(C)n2)s1 [MPX-007] |  | 3.2 fold | 95% ± 1% | nearly complete inhibition | ~6.70 | 30 µM |  | glycine-sensitivity of inhibition of GluN1/2B (GluN1/2B receptors): sensitive to the glycine concentration; inhibition of GluN1/2B receptors (GluN1/2B receptors; 30 μM compound, 3 μM glycine, n = 6): 48% ± 3%; concentrations at which GluN1/2B-D receptors are inhibited (GluN1/2B-D receptors): 10 to 30 µM
O=C(NNC(=O)c1ccc(CNS(=O)(=O)c2ccc(F)c(Cl)c2)cc1)c1ccccc1 [TCN-201] |  |  |  | nearly complete inhibition | ~6.70 | 5 µM | strict selectivity | allosteric constant [3]: 0.018; binding affinity KB compared to wild type [3]: little to no change; allosteric constant compared to wild type [4]: virtually unchanged; binding affinity KB compared to wild type [4]: virtually unchanged; inhibition [5]: abolished; inhibition in 300 μM glycine (GluN1/2A receptors; GluN1/2A, 300 μM glycine): markedly diminished; maximal increase of glycine EC50 (1/α) [6]: 143 fold; allosteric constant α ([6]; Schild analysis): 0.007; Kb [7]: 186 nM; allosteric constant [8]: 0.086; maximal increase of glycine EC50 (1/α) [8]: 12 fold; Kb ([8]; read-out: binding affinity KB): 131 nM; allosteric constant [9]: 0.016; allosteric constant α [10]: 0.001
